Entries after “also recorded” stand apart in the source; their conditions may differ.
Assays:
[1] = system: C. albicans (clinical isolate); assay: Trial of melanocortin peptides on C. albicans viability (colony formation); assay type: cell-based; conditions: for reduction of C. albicans CFU at higher concentrations: up to 10^-4M; for C. albicans colony forming units (CFU): peptide 10^−15 to 10^−4M, 2 hours at 37° C., compared to controls
Procedure: S. aureus (ATCC 29213) and C. albicans (clinical isolate) were obtained from the collection of the Department of Microbiology, Ospedale Maggiore di Milano. C. albicans were maintained on Sabouraud'[…] periodically transferred to Sabouraud's agar plates and incubated for 48 hours at 28° C. To prepare stationary growth phase yeast, a colony was taken from the agar plate and transferred into 30 ml Sabouraud-dextrose broth and incubated for 72 hours at 32° C. Cells were centrifuged at 1000×g for 10 minutes and the pellet was washed twice with distilled water. Cells were counted and suspended in Hank's balanced salt solution (“HBSS”) to the desired concentration. […] Cells were then washed in cold distilled water and diluted with HBSS to a concentration of 100 organisms/ml. One ml aliquots were dispensed on blood agar plates and incubated for 48 hours at 37° C. Organism viability was estimated from the number of colonies formed. […] There were at least six replicates for each concentration of peptide. […] The reaction was stopped after 3 minutes by the addition of ice cold ethanol. cAMP was measured in duplicate using a commercial enzyme immunoassay (EIA) kit (Amersham, United Kingdom) after extraction via the liquid-phase method according to manufacturer's instructions.

S. aureus (ATCC 29213) = assay: Trial of melanocortin peptides on S. aureus viability (colony formation); assay type: cell-based; conditions: peptide 10^−15 to 10^−4M, 2 hours at 37° C., compared to controls
Procedure: S. aureus (ATCC 29213) and C. albicans (clinical isolate) were obtained from the collection of the Department of Microbiology, Ospedale Maggiore di Milano. C. albicans were maintained on Sabouraud'[…] periodically transferred to Sabouraud's agar plates and incubated for 48 hours at 28° C. To prepare stationary growth phase yeast, a colony was taken from the agar plate and transferred into 30 ml Sabouraud-dextrose broth and incubated for 72 hours at 32° C. Cells were centrifuged at 1000×g for 10 minutes and the pellet was washed twice with distilled water. Cells were counted and suspended in Hank's balanced salt solution (“HBSS”) to the desired concentration. Viability, determined by the exclusion of 0.01% methylene blue, remained >98%. […] Cells were then washed in cold distilled water and diluted with HBSS to a concentration of 100 organisms/ml. One ml aliquots were dispensed on blood agar plates and incubated for 24 hours at 37° C. Organism viability was estimated from the number of colonies formed.

S. aureus = assay: Influence on urokinase-induced growth enhancement of S. aureus; assay type: cell-based; conditions: peptide 10^−6M, urokinase 500 U, 4 hours at 37° C.; p<0.001 vs urokinase alone
Source text: In experiments on S. aureus we determined the influence of α-MSH on urokinase-induced growth-enhancement. Hart, D. A., Loule, T., Krulikl, W., Reno, C., Staphylococcus Aureus Strains Differ in Their in Vitro Responsiveness to Human Urokinase: Evidence That Methicillin-resistant Strains Are Predominantly Nonresponsive to the Growth-enhancing Effects of Urokinase, Can. J. Microbiol. 42, 1024-31 (1966). […] Appropriate dilutions of S. aureus were dispensed on agar plates and colonies counted after 24 hours incubation at 37° C.

[2] = system: C. albicans killing by human neutrophils; assay: Trial of α-MSH peptides on C. albicans killing by human neutrophils; assay type: cell-based; conditions: 2 hours at 37° C., vs medium alone
Procedure: Venous blood (20 ml) from healthy volunteers was anticoagulated with heparin. Neutrophils were isolated using dextran sedimentation and Ficoll-Hypaque (Sigma Chemical Co., St. Louis, Mo., USA) centrifugation. Erythrocytes were lysed via hypotonic shock. Neutrophils represented at least 97% of the cell suspension. Cell viability, estimated by trypan blue exclusion, was >98%. Neutrophils were suspended to final concentration in HBSS. […] After incubation, the culture tubes were placed on ice to stop growth and extracellular organisms were washed twice with centrifugation at 1000×g at 4° C. A 2.5% sodium desoxycholate solution was added to the suspension and the tubes were shaken for 5 min. Cold distilled water was added to obtain a suspension of 10^6 cells/ml. Two 1/100 serial dilution in HBSS were made to obtain a final suspension of 100 cells/ml. Aliquots of 1 ml were dispensed on blood agar plates and incubated for 48 hours at 37° C. Colony forming units (“CFU”) were counted at the end of the incubation period. Experiments were run in triplicate and repeated using blood from 5 different donors.

cAMP = assay: Trial of α-MSH peptides on cAMP accumulation in C. albicans; assay type: cell-based; conditions: 10^−6M; for cAMP content of C. albicans: 3 minutes at 37° C., permeabilized yeast; for increase in cAMP compared with forskolin: equimolar
Procedure: The reaction was stopped after 3 minutes by the addition of ice cold ethanol. cAMP was measured in duplicate using a commercial enzyme immunoassay (EIA) kit (Amersham, United Kingdom) after extraction via the liquid-phase method according to manufacturer's instructions. The effect of forskolin (10^−6M) on C. albicans colony formation was determined using the same procedures as for α-MSH peptides.

HIV-1 = conditions: acutely and chronically infected monocytes; cited from earlier work
[3] = vs α-MSH; cited from earlier work

## ACTH (1-39): adrenocorticotropic hormone (1-39), melanocortin peptide (SYSMEHFRWGKPVGKKRRPVKVYPNGAEDESAEAFPLEF; Corticotropin; UniProt P01189 138-176, looked up) [reference compound]
[1]; 10^−6M
  relative potency in reducing C. albicans viability: did not reduce C. albicans viability
[1]
  reduction of C. albicans CFU at higher concentrations: ineffective

## ACTH (18-39): ACTH fragment (18-39) (CLIP) [reference compound]
[1]; 10^−6M
  relative potency in reducing C. albicans viability: did not reduce C. albicans viability
[1]
  reduction of C. albicans CFU at higher concentrations: ineffective

## HFRWGKPV (Ac-HFRWGKPV-NH2) [α-MSH (6-13)]
[1]; 10^−6M
  relative potency in reducing C. albicans viability: most effective

## KPV (Ac-Lys-Pro-Val-NH2) [α-MSH (11-13)]
S. aureus (ATCC 29213)
  S. aureus colony formation (CFU): significantly decreased S. aureus colony forming units; also recorded: inhibited S. aureus colony formation
S. aureus
  urokinase-enhanced S. aureus colony formation: significantly inhibited this urokinase-enhancing effect; also recorded: significantly inhibited the enhancing effect of urokinase
[1]; 10^−6M
  relative potency in reducing C. albicans viability: most effective
[1]
  C. albicans colony forming units (CFU): significantly decreased C. albicans colony forming units; also recorded: greatly reduced
[2]
  killing of C. albicans by human neutrophils: enhanced killing of C. albicans by human neutrophils
cAMP
  cAMP content of C. albicans: enhanced cAMP content in the yeast
  increase in cAMP compared with forskolin: same order of magnitude as that induced by equimolar forskolin

## MEHFRWG (Ac-MEHFRWG-NH2) [α-MSH (4-10)]
[1]; 10^−6M
  inhibition of C. albicans CFU: approximately 50%

## NH2-Lys-Pro-Val-AcCys-CysAc-Val-Pro-Lys-NH2 [KPV dimer]
S. aureus (ATCC 29213)
  S. aureus colony formation (CFU): significantly decreased S. aureus colony forming units; also recorded: inhibited S. aureus colony formation
[1]; S. aureus and C. albicans
  effectiveness against microbes compared with α-MSH (11-13): at least as effective as α-MSH (11-13) against microbes
[1]
  C. albicans colony forming units (CFU): significantly decreased C. albicans colony forming units; also recorded: inhibited C. albicans colony formation

## SYSMEHFRWGKPV [α-MSH (1-13)]
S. aureus (ATCC 29213)
  S. aureus colony formation (CFU): significantly decreased S. aureus colony forming units; also recorded: inhibited S. aureus colony formation
S. aureus
  urokinase-enhanced S. aureus colony formation: significantly inhibited this urokinase-enhancing effect; also recorded: significantly inhibited the enhancing effect of urokinase
[1]
  C. albicans colony forming units (CFU): significantly decreased C. albicans colony forming units; also recorded: greatly reduced
[2]
  killing of C. albicans by human neutrophils: enhanced killing of C. albicans by human neutrophils
cAMP
  cAMP content of C. albicans: enhanced cAMP content in the yeast
  increase in cAMP compared with forskolin: same order of magnitude as that induced by equimolar forskolin
HIV-1
  HIV-1 replication: inhibits HIV-1 replication in acutely and chronically infected monocytes

## [Nle^4,D-Phe^7]-α-MSH
[3]
  potency in reducing fever relative to the parent peptide: approximately 10 times

From patent US6887846B2, “Antimicrobial amino acid sequences derived from alpha-melanocyte-stimulating hormone” (priority 1999, dated 2005)
